According to patent publication US6723720B2, “Pesticidal triazine-derivatives” (Novartis Animal Health US, Inc., priority 1999, dated 2004):

SMILES: Fc1cccc(F)c1-c1cnnc(-c2ccc(-c3ccc(OC(F)(F)F)cc3)cc2)n1 [Example 1.6, 5-(2,6-Difluorophenyl)-3-(4′-trifluoromethoxybiphenyl-4-yl)-[1,2,4]triazine]
- melting point: 159 to 160 °C
